pEC50: −log10 of the molar value.
Experiments:
[1] = target: T1, WT STING (Homo sapiens, UniProt Q86WV6, H232R); test: Differential scanning fluorimetry with WT STING; type: binding; set-up: truncated human WT STING or AQ STING (amino acid residues 140-343); 8xHis (N, cleaved yes); SUMO (N, cleaved yes); made in house; host or cells: E. coli Rosetta-gami B (DE3); conditions: thermal shift, truncated human WT STING 0.1 mg/ml, 150 μM CDN; for ΔTm at 150 µM: read-out: DSF ΔTm WT STING
From the text: Both WT and AQ human STING (G230A-R293Q) cDNA were amplified by the use of PCR (Phusion® High-Fidelity DNA Polymerase, cat. #M0530S, NEB, Ipswich, USA) using oligonucleotides hSTING140-BamH-For ([…]) (SEQ ID NO:5) and hSTING379-Not-Rev3 ([…]) (SEQ ID NO:6) from pUNO1-hSTING-WT (cat. #puno1-hstingwt, InvivoGen, San Diego, USA) and pUNO1-hSTING-HAQ plasmids (punol-hsting-haq, InvivoGen, San Diego, USA). Purified PCR products were cleaved with restriction enzymes BamHI (cat. #R0136S, NEB, Ipswich, USA) and Notl (cat. #R0189S, NEB, Ipswich, USA) and cloned into the pSUMO vector linearized with the identical enzymes. Plasmid pSUMO was created by introducing 8-His-SUMO sequence between Ndel and BamHI sites of pHis-parallel2 plasmid (Clontech, Moutain View, USA). pSUMO-STING WT or pSUMO-STING AQ plasmids thus encoded truncated human WT STING or AQ STING (amino acid residues 140-343) with N-terminal 8xHis and SUMO tag.
The recombinant WT STING and AQ STING proteins were overexpressed in Rosetta-gami B (DE3) competent cells (cat. #71136-3, Merck Millipore, Billerica, USA). Bacterial pellets were re-suspended in ice-cold lysis buffer containing 50 mmol·l^−1 TrisCl (cat. #T1503, Sigma Aldrich, Czech Republic) pH 8.0, 300 mmol·l^−1 NaCl, 3 mmol·l^−1 β-mercaptoethanol (cat. #M6250, Sigma Aldrich, Czech Republic), 10% glycerol (cat. #G5516, Sigma Aldrich, Czech Republic) and 20 mmol·l^−1 imidazole (cat. #15513, Sigma Aldrich, Czech Republic) using Dounce homogenizer. DNase I (cat. #D5025, Sigma Aldrich, Czech Republic) and RNase A (cat. #R6513, Sigma Aldrich, Czech Republic) were added (final concentration 50 μg/ml) together with MgCl2 (final concentration 5 mmol·l^−1) to the homogenate and bacteria were lysed using French Press G-M™ High-Pressure Cell Press Homogenizer (1500 psi, 3 cycles). Lysate was spun 30,000 g for 20 minutes and supernatant was gently stirred with Ni-NTA resin (cat. #745400.25 Macherey-Nagel, Duren, Germany) for 30 minutes. The resin was poured into a chromatography column, washed with 50 ml buffer A (50 mmol·l^−1 TrisCl (pH 8.0), 800 mmol·l^−1 NaCl, 3 mmol·l^−1 (3-mercaptol; 10% glycerol; 20 mmol·l^−1 imidazole) and 8-His-SUMO tagged STING proteins were eluted with 15 ml buffer A containing 300 mmol·l^−1 imidazole. The eluted proteins were cleaved with recombinant SUMO protease (80 μg/ml of protein solution, cat. #12588018, ThermoFisher, Waltham, USA). The proteins were further purified by size exclusion chromatography using HiLoad 16/60 Superdex 75 (cat. #28989333, GE Healthcare Bio-Sciences, Pittsburgh, USA) in 50 mmol·l^−1 Tris Cl buffer pH 7.4 containing 150 mmol·l^−1 NaCl, and 10% glycerol. Proteins were concentrated with Amicon® Ultra-15 10 K device (cat. #UFC901008, Merck Millipore, Billerica, USA) and flash frozen in liquid N2.
WT and AQ allelic forms of STING protein were diluted to the final concentration 0.1 mg/ml in 100 mmol·l^−1 TrisCl buffer pH 7.4 containing, 150 mmol·l^−1 NaCl, 1:500 SYPRO Orange (cat. #S6650, ThermoFisher, Waltham, USA) and 150 μM CDN or water. 20 μL solutions of the reaction mixtures were pipetted in triplicates into 96 well optical reaction plates and thermal denaturation of samples were performed on real time PCR cycler (LightCycler® 480 Instrument II—Roche, Basel, Switzerland). The first derivative of the thermal denaturation curves was performed to calculate denaturing temperatures of STING—CDN complexes and STING apoproteins. The thermal shift for each CDN was calculated by subtracting the average denaturing temperature of STING apoprotein from the average denaturing temperature of STING CDN complex.
Target sequence in this assay (Q86WV6 140-343 H232R): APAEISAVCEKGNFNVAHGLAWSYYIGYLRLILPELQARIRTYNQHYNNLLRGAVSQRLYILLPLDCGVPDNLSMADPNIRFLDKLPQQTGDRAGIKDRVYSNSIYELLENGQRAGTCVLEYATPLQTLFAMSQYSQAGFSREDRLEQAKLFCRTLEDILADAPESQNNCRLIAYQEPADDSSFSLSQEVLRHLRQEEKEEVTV

[2] = target: T1, WT STING; test: 293T WT STING standard reporter assay; type: cell-based; set-up: host or cells: 293T (ATCC CRL-3216), stably transfected; conditions: 293T wtSTING-FL cells, no digitonin, 7 h incubation, luciferase reporter
Experimental: After 5 minutes incubation at room temperature (RT), 250 μL of the mixture was added dropwise to the cells in one well. Cells were incubated 36 hours at 37° C. with 5% CO2, and then detached with 0.05% Trypsin and 0.22 g/L EDTA (both cat. #L0941, Biowest, Riverside, USA).
Transfected cells were seeded onto poly-D-lysine coated six well plates at density 50,000 cells per 1 cm^2 in DMEM medium with high glucose containing 10% heat inactivated FBS, 30 μg/mL blasticidin (cat. #ant-b1-05, InvivoGen, San Diego, USA), 0.06 mg/ml Penicillin G and 0.1 mg/ml Streptomycin Sulfate (both cat. #. L0018, Biowest, Riverside, USA). The medium was replenished every 3-4 days until visible colonies of cells resistant to blasticidin were formed.
Blasticidin resistant cells stably expressing WT STING were further transfected with […] plasmid following the same procedure as described above. […] Homogeneous culture of stably double transfected cells was prepared by limiting dilution of cells in 96 well plates and wells with cells were selected that originated from a single cell.
The medium was removed next day and three-fold serial dilutions of compounds in 100 μl medium were added to the cells. The plates with cells were incubated for 7 hours at 37° C. with 5% CO2. After 50 μl of the medium was removed, 30 μl of ONE-Glo™ Luciferase Assay System reagent (cat. #E6120, Promega, Madison, USA) was added to each well and luminescence was read on Synergy H1 (Biotek, Winooski, USA). […] (cat. #tlrl-nacga23), and 2′2′-cGAMP (cat. #tlrl-nacga22) were purchased from Invivogen (San Diego, USA).
Target sequence in this assay (Q86WV6 whole entry H232R, the tested form may be a part): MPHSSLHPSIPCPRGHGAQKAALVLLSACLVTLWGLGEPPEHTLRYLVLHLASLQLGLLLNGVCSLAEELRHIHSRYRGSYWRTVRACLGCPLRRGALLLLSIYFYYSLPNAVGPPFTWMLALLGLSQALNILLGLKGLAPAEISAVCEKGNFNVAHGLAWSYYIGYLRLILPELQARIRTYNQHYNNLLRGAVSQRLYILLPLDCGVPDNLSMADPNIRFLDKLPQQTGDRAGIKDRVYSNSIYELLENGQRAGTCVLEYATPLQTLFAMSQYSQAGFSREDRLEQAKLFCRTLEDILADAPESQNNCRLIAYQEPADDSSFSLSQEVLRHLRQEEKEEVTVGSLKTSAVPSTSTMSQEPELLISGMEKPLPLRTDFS

Row | ΔTm at 150 µM [1] [°C] | pEC50 [2] | DSF ΔTm WT STING [1] [°C] | Compound
1 | 8.5 |  |  | Nc1nc2c(ncn2[C@@H]2O[C@@H]3COP(=O)(O)O[C@H]4[C@H](n5cnc6c(N)ncnc65)CO[C@@H]4COP(=O)(O)O[C@H]3[C@H]2F)c(=O)[nH]1 [Compound 24, (1S,6R,8R,9R,10R,15R,18R)-8-(2-amino-6-oxo-6,9-dihydro-1H-purin-9-yl)-18-(6-amino-9H-purin-9-yl)-9-fluoro-3,12-dihydroxy-2,4,7,11,13,16-hexaoxa-3λ^5,12λ^5-diphosphatricyclo[13.3.0.0^6,10]octadecane-3,12-dione]
2 | 5.6 |  |  | Nc1ncnc2c1ncn2[C@@H]1CO[C@@H]2COP(=O)(O)O[C@H]3[C@@H](F)[C@H](n4cnc5c(N)ncnc54)O[C@@H]3COP(=O)(O)O[C@@H]12 [Compound 28, (1S,6R,8R,9R,10R,15R,18R)-8,18-bis(6-amino-9H-purin-9-yl)-9-fluoro-3,12-dihydroxy-2,4,7,11,13,16-hexaoxa-3λ^5,12λ^5-diphosphatricyclo[13.3.0.0^6,10]octadecane-3,12-dione]
3 | 8.5 | 6.81 |  | Nc1ncnc2c1ncn2[C@@H]1CO[C@@H]2COP(=O)(S)O[C@H]3[C@@H](F)[C@H](n4cnc5c(N)ncnc54)O[C@@H]3COP(=O)(S)O[C@@H]12 (stereo partly drawn) [Compound 54, (1S,6R,8R,9R,10R,15R,18R)-8,18-bis(6-amino-9H-purin-9-yl)-9-fluoro-3,12-disulfanyl-2,4,7,11,13,16-hexaoxa-3λ^5,12λ^5-diphosphatricyclo[13.3.0.0^6,10]octadecane-3,12-dione]
4 |  | 6.47 | 11.0 | Nc1ncnc2c1ncn2[C@@H]1CO[C@@H]2COP(=O)(S)O[C@H]3[C@@H](F)[C@H](n4cnc5c(N)ncnc54)O[C@@H]3COP(=O)(S)O[C@@H]12 (stereo partly drawn) [Compound 55, (1S,6R,8R,9R,10R,15R,18R)-8,18-bis(6-amino-9H-purin-9-yl)-9-fluoro-3,12-disulfanyl-2,4,7,11,13,16-hexaoxa-3λ^5,12λ^5-diphosphatricyclo[13.3.0.0^6,10]octadecane-3,12-dione]

Further lines, the compound ahead of its results:

Row | Compound | ΔTm at 150 µM [1] [°C] | pEC50 [2] | DSF ΔTm WT STING [1] [°C]
5 | Nc1ncnc2c1ncn2[C@@H]1CC[C@@H]2COP(=O)(O)O[C@H]3[C@@H](F)[C@H](n4cnc5c(N)ncnc54)O[C@@H]3COP(=O)(O)O[C@H]21 [Compound 34, (1R,6R,8R,9R,10R,15R,18R)-8,18-bis(6-amino-9H-purin-9-yl)-9-fluoro-3,12-dihydroxy-2,4,7,11,13-pentaoxa-3λ^5,12λ^5-diphosphatricyclo[13.3.0.0^6,10]octadecane-3,12-dione] | 1.6 |  | 
6 | Nc1ncnc2c1ncn2[C@@H]1CO[C@@H]2COP(=O)(O)O[C@H]3C[C@H](n4cnc5c(N)ncnc54)O[C@@H]3COP(=O)(O)O[C@@H]12 [Compound 50, (1S,6R,8R,10S,15R,18R)-8,18-bis(6-amino-9H-purin-9-yl)-3,12-dihydroxy-2,4,7,11,13,16-hexaoxa-3λ^5,12λ^5-diphosphatricyclo[13.3.0.0^6,10]octadecane-3,12-dione] | 1.8 |  | 
7 | Nc1nc2c(ncn2[C@@H]2CO[C@@H]3COP(=O)(O)O[C@H]4[C@@H](F)[C@H](n5cnc6c(N)ncnc65)O[C@@H]4COP(=O)(O)O[C@@H]23)c(=O)[nH]1 [Compound 51, (1S,6R,8R,9R,10R,15R,18R)-18-(2-amino-6-oxo-6,9-dihydro-1H-purin-9-yl)-8-(6-amino-9H-purin-9-yl)-9-fluoro-3,12-dihydroxy-2,4,7,11,13,16-hexaoxa-3λ^5,12λ^5-diphosphatricyclo[13.3.0.0^6,10]octadecane-3,12-dione] | 6.8 |  | 
8 | Nc1nc2c(ncn2[C@@H]2CO[C@@H]3COP(=O)(O)O[C@H]4[C@H](n5cnc6c(N)ncnc65)CO[C@@H]4COP(=O)(O)O[C@@H]23)c(=O)[nH]1 [Compound 52, (1S,6R,9R,10S,15R,18R)-9-(2-amino-6-oxo-6,9-dihydro-1H-purin-9-yl)-18-(6-amino-9H-purin-9-yl)-3,12-dihydroxy-2,4,7,11,13,16-hexaoxa-3λ^5,12λ^5-diphosphatricyclo[13.3.0.0^6,10]octadecane-3,12-dione] | 2.4 |  | 
9 | Nc1nc2c(ncn2[C@@H]2CO[C@@H]3COP(=O)(O)O[C@H]4C[C@H](n5cnc6c(N)ncnc65)O[C@@H]4COP(=O)(O)O[C@@H]23)c(=O)[nH]1 [Compound 53, (1S,6R,8R,10S,15R,18R)-18-(2-amino-6-oxo-6,9-dihydro-1H-purin-9-yl)-8-(6-amino-9H-purin-9-yl)-3,12-dihydroxy-2,4,7,11,13,16-hexaoxa-3λ^5,12λ^5-diphosphatricyclo[13.3.0.0^6,10]octadecane-3,12-dione] | 2.9 |  | 

Source: patent US20240166681A1, “3'3' CYCLIC DINUCLEOTIDES CONTAINING ISONUCLEOTIDIC UNITS” (INSTITUTE OF ORGANIC CHEMISTRY AND BIOCHEMISTRY AS CR, V. …, priority 2021, published 2024)
